# Active and inactive are the calls of the source.
# Key:
# [1] = biological target: Sphingosine 1-phosphate receptor 2 (Homo sapiens, UniProt O95136); test: Dose Response Cell Based Assay for Antagonists of the S1P2 Receptor. [Related pubchem assays: 856, 736 ]; type: functional
# [2] = cytotoxicity in HEK-293T cells, dose response, cytotoxicity control for BCR NF-kB inhibitor project, luminescence, B-cell screen hits (AID 489021); type: functional, cell-based;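 note: HEK-293T cells carrying an NF-kB luciferase reporter; cells exposed to compound for about 14 hours before viability readout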
# [3] = Luminescence Cell-Based Dose Confirmation HTS to Identify Inhibitors of Polyadenylation.; type: functional
# Estrogen receptor = biological target: T1, Estrogen receptor (Homo sapiens, UniProt P03372);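 note: potency for inhibiting coactivator peptide recruitment to the receptor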
# T1 sequence (P03372 whole entry): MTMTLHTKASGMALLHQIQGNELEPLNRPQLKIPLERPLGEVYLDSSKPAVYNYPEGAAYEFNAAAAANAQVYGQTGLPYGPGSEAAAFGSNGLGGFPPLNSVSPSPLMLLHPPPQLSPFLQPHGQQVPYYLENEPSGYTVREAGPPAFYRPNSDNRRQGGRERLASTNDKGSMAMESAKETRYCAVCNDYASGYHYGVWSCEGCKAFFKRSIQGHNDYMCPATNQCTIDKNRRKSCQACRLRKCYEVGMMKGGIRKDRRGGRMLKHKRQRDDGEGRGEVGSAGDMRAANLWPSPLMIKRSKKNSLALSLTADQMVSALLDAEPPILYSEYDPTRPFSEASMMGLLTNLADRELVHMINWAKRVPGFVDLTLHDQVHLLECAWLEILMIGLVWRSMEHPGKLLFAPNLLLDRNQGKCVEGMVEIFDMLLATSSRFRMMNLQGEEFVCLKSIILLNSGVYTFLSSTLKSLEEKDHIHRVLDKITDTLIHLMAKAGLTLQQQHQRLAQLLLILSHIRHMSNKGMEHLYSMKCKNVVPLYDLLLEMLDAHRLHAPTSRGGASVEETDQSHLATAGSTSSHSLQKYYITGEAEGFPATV
# Escherichia coli = test: microbe, parasite or virus in culture
# [4] = inhibitors of Vif binding to APOBEC3G peptide, primary screen, biochemical, TR-FRET, GST-Vif 1-94, biotin-A3G peptide, dose response retest (AID 1117319); type: functional;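 note: TR-FRET signal of purified GST-Vif binding a biotinylated A3G peptide; inhibitors lower the FRET signal by blocking Vif and A3G binding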
# [5] = biological target: T2, Histone-lysine N-methyltransferase NSD2 (Homo sapiens, UniProt O96028); type: biochemical
# T2 sequence (O96028 whole entry): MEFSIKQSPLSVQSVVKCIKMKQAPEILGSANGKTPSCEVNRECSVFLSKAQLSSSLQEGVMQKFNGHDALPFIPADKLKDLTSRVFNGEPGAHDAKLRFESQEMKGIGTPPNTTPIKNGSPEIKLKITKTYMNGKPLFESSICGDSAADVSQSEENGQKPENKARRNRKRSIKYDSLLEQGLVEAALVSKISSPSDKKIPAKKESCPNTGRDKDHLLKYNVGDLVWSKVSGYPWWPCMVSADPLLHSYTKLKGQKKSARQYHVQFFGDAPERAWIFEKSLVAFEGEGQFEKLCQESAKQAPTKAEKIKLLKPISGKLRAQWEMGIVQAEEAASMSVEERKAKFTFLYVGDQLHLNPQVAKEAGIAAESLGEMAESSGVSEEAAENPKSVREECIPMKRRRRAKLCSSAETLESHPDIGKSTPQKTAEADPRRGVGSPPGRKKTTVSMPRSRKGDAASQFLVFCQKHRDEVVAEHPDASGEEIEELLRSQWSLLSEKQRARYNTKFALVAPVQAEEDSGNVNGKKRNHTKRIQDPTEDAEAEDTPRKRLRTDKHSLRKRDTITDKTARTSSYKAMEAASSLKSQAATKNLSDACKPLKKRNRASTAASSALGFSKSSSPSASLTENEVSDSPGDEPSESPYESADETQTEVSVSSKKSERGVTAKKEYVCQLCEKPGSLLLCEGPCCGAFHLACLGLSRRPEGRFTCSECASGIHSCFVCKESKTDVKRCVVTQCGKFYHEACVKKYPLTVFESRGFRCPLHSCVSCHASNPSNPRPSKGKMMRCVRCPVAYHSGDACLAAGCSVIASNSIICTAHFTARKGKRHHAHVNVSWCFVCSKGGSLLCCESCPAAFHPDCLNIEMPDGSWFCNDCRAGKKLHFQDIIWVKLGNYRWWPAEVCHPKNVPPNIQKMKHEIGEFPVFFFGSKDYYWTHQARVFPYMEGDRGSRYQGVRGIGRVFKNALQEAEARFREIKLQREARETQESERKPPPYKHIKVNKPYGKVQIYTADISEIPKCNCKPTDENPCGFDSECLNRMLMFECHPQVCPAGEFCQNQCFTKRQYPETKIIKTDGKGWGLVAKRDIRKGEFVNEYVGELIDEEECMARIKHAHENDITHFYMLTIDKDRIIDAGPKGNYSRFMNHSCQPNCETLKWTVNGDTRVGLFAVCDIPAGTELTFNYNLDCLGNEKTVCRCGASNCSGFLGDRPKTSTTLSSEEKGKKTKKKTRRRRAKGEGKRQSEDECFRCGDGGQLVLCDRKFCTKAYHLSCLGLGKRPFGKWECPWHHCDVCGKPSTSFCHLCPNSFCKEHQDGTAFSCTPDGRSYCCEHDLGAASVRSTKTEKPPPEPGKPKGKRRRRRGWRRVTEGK
# [6] = inhibitors of intracellular T. cruzi replication, confirmation, NIH3T3 host cells, beta-gal luminescence (AID 2044); type: functional, cell-based;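 note: intracellular parasites grown in NIH/3T3 mouse fibroblasts as host cells; luminescent beta-galactosidase reporter signal from transgenic T. cruzi replicating inside host cells; inhibitors lower the luminescence signal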
# [7] = cytotoxicity toward NIH3T3 fibroblasts, dose response, counter-screen, cell-based, ATP luminescence, mouse fibroblasts (AID 2010); type: functional;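 note: cells exposed to compound for about 90 hours before reading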
# Beta-galactosidase = Beta-galactosidase (Escherichia coli, UniProt Q8VNN2); test: beta-galactosidase enzyme inhibitors and activators, dose response, artefact control for CCR6 antagonist project, biochemical, E. coli enzyme, set 3 (AID 504712); type: functional
# [8] = biological target: Mitogen-activated protein kinase 10 (Homo sapiens, UniProt P53779); test: Dose response biochemical screening assay for inhibitors of c-Jun N-Terminal Kinase 3 (JNK3). [Related pubchem assays: 746 ]
# [9] = inhibitors of firefly luciferase expression or activity, dose response, H4 neuroglioma cells, luminescence (AID 1990); type: functional, cell-based
# [10] = Luminescence Cell-Based Dose Response HTS to Identify Inhibitors of 5'UTR Stem-Loop Driven Prion Protein mRNA Translation in H4 Neuroglioblastoma Cells. [Related pubchem assays: 1827 (Project Summary), 1813 (Primary HTS)]; type: functional
# [11] = inhibitors of SNCA 5'UTR-driven reporter translation, confirmation, H4 neuroglioma cells, luminescence (AID 1988); type: functional, cell-based
# [12] = biological target: T3, Corticotropin-releasing factor receptor 2/Corticotropin-releasing factor-binding protein (Homo sapiens, UniProt P24387+Q13324); test: activators of CRF receptor 2 with binding protein – uHTS hits, confirmation (AID 602473); type: functional; conditions: read-out: EC50_Mean
# T3 sequence (Q13324 whole entry): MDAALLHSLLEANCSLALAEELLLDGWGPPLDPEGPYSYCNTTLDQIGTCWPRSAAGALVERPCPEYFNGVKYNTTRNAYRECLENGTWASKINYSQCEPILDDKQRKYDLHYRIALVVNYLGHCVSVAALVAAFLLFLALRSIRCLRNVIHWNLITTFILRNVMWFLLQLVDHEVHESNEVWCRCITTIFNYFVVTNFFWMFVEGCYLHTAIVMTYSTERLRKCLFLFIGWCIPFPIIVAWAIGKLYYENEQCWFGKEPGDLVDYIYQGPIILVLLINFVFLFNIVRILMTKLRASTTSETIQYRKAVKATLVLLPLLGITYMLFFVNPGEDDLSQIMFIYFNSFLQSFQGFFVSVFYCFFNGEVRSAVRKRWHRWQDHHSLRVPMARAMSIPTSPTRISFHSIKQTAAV
# T3 sequence (P24387 whole entry): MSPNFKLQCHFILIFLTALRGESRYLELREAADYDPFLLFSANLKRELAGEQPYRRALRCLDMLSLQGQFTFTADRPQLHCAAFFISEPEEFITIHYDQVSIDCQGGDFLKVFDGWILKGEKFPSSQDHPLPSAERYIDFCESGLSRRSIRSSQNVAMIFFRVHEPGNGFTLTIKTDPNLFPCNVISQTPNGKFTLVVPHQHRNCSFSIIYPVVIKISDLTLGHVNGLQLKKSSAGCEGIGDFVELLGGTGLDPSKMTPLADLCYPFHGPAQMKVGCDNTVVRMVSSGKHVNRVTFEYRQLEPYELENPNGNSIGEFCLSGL
# [13] = A549 cell cytotoxicity, dose response, cytotoxicity control, plate reader, cherry-pick, antagonist series (AID 743412); type: functional, cell-based
# Cryptococcus neoformans = test: PubChem AID 686997; type: functional, organism-based; conditions: Cryptococcus neoformans
# HEK293 = test: HEK293T cell cytotoxicity, dose response, cytotoxicity control, ATP luminescence, cherry-pick samples (AID 687005); type: functional, cell-based; conditions: Homo sapiens;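 note: cells exposed to compound for 48 hours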
# [14] = HEK293 Cytotoxicity Assay Measured in Cell-Based System Using Plate Reader - 7071-01_Inhibitor_Dose_CherryPick_Activity_Set2.; type: functional
# HeLa = test: HeLa cell cytotoxicity, dose response, cytotoxicity control, ATP luminescence, cherry-pick samples (AID 687004); type: functional, cell-based; conditions: Homo sapiens
# [15] = biological target: Voltage-gated N-type calcium channel alpha-1B subunit/Amyloid beta A4 precursor protein-binding family A member 1 (Homo sapiens, UniProt Q00975+Q02410); type: protein assay
# [16] = biological target: Disintegrin and metalloproteinase domain-containing protein 17 (Homo sapiens, UniProt P78536); test: exosite inhibitors of ADAM17, dose response, biochemical (AID 743260)
# [17] = ADAM10 protease inhibitors, dose response, selectivity assay for ADAM17 exosite inhibitor project, biochemical, FRET peptide substrate, recombinant human ADAM10 (AID 743259);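 note: ADAM10 enzyme cleaving a FRET peptide substrate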
# Estrogen receptor beta = Estrogen receptor beta (Homo sapiens, UniProt Q92731); test: ERβ–SRC-3 coactivator interaction inhibitors, confirmation, orthogonal assay, biochemical, ELISA, streptavidin-HRP readout (AID 1060)
# [18] = biological target: T4, Dual specificity protein phosphatase 6 (Rattus norvegicus, UniProt Q64346); test: MKP-3 phosphatase inhibitors, primary screen, biochemical, rat enzyme, in vitro (AID 425)
# T4 sequence (Q64346 whole entry): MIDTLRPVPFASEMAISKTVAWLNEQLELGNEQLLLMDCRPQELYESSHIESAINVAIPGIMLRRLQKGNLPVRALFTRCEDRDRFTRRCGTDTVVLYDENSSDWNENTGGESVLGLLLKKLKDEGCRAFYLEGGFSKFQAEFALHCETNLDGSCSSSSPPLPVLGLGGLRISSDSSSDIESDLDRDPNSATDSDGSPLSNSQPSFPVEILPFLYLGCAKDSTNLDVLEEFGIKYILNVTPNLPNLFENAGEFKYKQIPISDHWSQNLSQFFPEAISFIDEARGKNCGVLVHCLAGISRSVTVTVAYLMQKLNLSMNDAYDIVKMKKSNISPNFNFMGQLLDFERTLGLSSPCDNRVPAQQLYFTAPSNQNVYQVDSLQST
# Sphingosine 1-phosphate receptor 2, sequence (O95136 whole entry): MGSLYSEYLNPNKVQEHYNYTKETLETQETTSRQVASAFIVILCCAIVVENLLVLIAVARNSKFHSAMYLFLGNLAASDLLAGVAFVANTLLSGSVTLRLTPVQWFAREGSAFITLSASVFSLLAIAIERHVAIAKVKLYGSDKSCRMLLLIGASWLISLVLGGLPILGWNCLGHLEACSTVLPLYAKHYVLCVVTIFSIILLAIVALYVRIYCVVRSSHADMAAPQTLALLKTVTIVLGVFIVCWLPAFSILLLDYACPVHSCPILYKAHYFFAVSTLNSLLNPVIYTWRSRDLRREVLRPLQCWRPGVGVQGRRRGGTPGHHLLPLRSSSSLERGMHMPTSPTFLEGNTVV
# Beta-galactosidase, sequence (Q8VNN2 whole entry): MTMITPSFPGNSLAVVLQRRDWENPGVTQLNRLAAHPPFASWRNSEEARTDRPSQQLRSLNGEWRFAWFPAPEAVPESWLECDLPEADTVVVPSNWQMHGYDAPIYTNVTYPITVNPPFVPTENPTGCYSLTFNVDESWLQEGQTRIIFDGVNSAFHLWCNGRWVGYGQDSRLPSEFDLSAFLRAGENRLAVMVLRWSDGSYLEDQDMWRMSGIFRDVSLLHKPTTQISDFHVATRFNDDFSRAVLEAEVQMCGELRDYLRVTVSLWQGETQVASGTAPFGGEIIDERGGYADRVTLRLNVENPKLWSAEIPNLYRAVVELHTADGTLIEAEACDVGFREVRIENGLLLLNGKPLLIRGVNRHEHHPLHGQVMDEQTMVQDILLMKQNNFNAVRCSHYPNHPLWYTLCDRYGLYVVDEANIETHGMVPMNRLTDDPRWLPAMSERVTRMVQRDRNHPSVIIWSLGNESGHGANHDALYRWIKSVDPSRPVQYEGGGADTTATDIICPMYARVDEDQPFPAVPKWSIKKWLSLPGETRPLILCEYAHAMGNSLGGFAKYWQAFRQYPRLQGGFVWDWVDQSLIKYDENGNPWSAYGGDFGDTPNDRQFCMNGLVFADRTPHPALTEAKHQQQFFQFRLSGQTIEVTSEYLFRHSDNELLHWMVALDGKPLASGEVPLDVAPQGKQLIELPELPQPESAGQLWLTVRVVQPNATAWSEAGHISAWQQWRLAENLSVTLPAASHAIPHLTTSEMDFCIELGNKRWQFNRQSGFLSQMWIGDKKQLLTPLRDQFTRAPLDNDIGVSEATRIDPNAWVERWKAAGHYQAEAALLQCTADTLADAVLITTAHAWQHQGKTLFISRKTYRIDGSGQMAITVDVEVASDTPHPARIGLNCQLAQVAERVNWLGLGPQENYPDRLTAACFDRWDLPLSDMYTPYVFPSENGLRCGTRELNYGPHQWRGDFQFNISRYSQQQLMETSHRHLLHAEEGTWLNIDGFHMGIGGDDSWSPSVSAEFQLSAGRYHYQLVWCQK
# Mitogen-activated protein kinase 10, sequence (P53779 whole entry): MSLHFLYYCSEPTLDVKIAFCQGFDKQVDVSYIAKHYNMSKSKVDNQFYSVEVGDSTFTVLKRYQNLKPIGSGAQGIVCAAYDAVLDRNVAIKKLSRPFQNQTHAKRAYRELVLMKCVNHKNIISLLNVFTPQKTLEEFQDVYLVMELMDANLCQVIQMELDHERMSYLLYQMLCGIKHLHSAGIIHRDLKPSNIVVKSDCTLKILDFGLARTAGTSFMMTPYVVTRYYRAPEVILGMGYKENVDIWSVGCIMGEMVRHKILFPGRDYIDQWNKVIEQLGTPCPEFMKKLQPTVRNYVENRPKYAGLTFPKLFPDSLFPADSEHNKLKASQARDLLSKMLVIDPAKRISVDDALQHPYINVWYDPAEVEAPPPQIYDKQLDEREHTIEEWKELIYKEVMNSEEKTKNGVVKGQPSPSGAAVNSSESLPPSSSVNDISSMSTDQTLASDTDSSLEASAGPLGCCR
# Voltage-gated N-type calcium channel alpha-1B subunit/Amyloid beta A4 precursor protein-binding family A member 1, sequence (Q00975 whole entry, the tested form may be a part): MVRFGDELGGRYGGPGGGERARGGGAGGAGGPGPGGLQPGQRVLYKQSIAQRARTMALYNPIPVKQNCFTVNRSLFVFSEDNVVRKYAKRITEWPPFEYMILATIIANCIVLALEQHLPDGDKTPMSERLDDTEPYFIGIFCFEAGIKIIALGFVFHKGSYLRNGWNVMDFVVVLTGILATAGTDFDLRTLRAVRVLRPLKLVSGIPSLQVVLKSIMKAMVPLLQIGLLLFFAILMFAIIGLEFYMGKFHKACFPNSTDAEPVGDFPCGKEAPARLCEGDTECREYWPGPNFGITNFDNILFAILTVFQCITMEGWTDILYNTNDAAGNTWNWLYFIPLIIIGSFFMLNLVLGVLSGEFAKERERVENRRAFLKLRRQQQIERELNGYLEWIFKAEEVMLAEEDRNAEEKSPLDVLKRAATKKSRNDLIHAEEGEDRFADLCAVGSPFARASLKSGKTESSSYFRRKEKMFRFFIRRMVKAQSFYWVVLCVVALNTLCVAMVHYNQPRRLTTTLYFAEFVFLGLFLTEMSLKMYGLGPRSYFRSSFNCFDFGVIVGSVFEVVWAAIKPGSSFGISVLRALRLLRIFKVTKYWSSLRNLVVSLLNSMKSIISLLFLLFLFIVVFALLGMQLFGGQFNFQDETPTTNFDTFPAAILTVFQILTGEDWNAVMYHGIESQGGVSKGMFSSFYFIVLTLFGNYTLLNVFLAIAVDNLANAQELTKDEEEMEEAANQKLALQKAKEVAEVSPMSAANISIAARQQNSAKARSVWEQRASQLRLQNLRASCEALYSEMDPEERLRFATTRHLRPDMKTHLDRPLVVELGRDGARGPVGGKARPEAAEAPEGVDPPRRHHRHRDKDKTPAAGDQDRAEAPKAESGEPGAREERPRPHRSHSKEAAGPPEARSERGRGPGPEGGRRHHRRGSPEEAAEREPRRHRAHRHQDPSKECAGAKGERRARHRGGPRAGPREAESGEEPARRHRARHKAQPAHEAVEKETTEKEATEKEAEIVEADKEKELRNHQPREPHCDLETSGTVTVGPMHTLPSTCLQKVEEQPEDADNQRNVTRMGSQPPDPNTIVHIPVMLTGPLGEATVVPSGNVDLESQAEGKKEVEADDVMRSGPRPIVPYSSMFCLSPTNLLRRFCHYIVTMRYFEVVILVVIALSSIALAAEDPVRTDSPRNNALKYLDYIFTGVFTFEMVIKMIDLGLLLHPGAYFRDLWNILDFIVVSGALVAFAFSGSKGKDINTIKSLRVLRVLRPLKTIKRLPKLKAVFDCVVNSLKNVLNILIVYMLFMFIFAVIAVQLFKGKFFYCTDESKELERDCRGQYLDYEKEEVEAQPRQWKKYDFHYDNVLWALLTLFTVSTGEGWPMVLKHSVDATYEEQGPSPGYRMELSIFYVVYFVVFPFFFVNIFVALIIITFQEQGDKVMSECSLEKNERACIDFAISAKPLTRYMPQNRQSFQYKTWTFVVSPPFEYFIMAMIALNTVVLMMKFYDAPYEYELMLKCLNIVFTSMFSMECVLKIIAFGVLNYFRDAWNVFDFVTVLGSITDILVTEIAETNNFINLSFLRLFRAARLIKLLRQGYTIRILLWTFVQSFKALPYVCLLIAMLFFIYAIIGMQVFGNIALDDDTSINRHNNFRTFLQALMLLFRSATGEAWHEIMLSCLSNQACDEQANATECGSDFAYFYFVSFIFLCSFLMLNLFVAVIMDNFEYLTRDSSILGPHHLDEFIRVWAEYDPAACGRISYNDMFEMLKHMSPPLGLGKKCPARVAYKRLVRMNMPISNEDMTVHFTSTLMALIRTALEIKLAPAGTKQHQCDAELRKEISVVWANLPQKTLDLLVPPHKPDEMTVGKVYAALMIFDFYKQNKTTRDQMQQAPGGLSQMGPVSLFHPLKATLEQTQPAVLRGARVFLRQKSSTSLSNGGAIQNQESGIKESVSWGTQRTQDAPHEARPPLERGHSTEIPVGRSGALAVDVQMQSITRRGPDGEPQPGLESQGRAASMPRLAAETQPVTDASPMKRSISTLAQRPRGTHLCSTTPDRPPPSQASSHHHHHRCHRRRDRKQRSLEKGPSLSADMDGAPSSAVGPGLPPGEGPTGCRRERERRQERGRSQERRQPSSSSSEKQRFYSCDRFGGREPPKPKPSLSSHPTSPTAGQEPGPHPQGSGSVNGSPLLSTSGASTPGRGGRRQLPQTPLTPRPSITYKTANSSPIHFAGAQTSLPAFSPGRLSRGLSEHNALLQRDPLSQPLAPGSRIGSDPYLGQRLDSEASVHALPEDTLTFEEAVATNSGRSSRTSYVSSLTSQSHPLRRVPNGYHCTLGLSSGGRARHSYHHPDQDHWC
# Voltage-gated N-type calcium channel alpha-1B subunit/Amyloid beta A4 precursor protein-binding family A member 1, sequence (Q02410 whole entry, the tested form may be a part): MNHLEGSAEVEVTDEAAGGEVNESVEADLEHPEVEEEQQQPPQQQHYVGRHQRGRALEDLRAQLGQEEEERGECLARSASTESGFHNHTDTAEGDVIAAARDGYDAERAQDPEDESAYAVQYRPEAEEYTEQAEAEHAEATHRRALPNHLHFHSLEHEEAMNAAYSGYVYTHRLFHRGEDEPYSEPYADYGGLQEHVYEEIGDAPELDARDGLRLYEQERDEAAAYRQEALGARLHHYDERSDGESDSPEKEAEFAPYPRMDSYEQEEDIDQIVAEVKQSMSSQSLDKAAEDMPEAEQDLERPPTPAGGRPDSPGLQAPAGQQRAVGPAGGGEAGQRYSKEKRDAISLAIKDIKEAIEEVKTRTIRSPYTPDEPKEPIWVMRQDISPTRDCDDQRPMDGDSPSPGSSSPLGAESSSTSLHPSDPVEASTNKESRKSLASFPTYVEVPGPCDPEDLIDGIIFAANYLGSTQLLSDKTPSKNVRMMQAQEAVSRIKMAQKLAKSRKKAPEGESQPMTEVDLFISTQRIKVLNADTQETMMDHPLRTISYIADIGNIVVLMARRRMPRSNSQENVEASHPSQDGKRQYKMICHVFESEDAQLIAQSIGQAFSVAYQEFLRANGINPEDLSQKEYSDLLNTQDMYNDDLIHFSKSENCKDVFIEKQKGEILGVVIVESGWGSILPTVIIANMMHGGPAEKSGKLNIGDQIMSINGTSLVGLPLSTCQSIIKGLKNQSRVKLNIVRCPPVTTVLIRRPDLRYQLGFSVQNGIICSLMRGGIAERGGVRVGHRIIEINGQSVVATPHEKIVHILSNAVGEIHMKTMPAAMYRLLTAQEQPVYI
structure (smiles),measurement,setting,value
Cc1ccsc1C(=O)Nc1ccc(F)cc1,IC50,[1],> 30 µM (not active)
CCC(C)[C@H](N)c1nnc(SCC(=O)c2ccc(Cl)cc2)o1 (some centres not stated),IC50,[2],> 80 µM (inactive)
O=C1c2cnc3nc(SCc4ccccc4)nn3c2CC2c3ccccc3CCN12 (configuration not stated),EC50,[3],> 120 µM (not active)
Cc1ccc(NC(=O)/C(=C/c2cccc([N+](=O)[O-])c2)NC(=O)C2CCCCC2)c(C)c1,IC50,Estrogen receptor,> 50 µM (not active)
same,EC50,[3],> 120 µM (not active)
same,AC50,Escherichia coli,62.4 µM (active)
FC(F)(F)c1cnc2c(-c3cccs3)csc2c1,IC50,[1],> 30 µM (not active)
Cc1ccc(S(=O)(=O)CCC(=O)Nc2ccc3c(c2)OCO3)cc1,IC50,[4],> 100 µM (active)
CCN(CC)c1ccc(C2C3CCCCC3(O)CCN2CC(=O)Nc2ccccc2)cc1 (configuration not stated),IC50,[4],> 100 µM (active)
O=C(Nc1cccc(Oc2ccc3c(c2)C(=O)NC3=O)c1)c1cccs1,IC50,[2],> 80 µM (inactive)
CCN1CCCC1CNc1[nH]cnc2c3cc(F)ccc3nc1-2 (configuration not stated),AC50,[5],> 20 µM (inactive)
O=C1c2cccc3c([N+](=O)[O-])ccc(c23)C(=O)N1Cc1cccnc1,EC50,[6],3.67 µM (active)
same,EC50,[7],9.5 µM (active)
same,IC50,Beta-galactosidase,16.8 µM (active)
CCCc1nc(SCC(=O)N2CCCC2)c2ccccc2n1,IC50,[8],50.4 µM (not active)
COc1ccccc1NC(=O)COc1ccc(CO)cc1Cl,IC50,[8],68.6 µM (not active)
O=C(Oc1coc(CSc2ncccn2)cc1=O)c1ccc(Br)o1,EC50,[3],> 120 µM (not active)
Cc1cc(C)cc(NC(=O)c2nnn(Cc3cc(C)ccc3C)c2N)c1,EC50,[9],13.6 µM (active)
same,EC50,[10],39.8 µM (active)
same,EC50,[11],18.2 µM (active)
same,IC50,[2],> 80 µM (inactive)
same,EC50,[12],8.37 µM (active)
O=C(Nc1ccc(F)cc1)c1cc(-c2cccs2)nc2ccccc12,IC50,[1],> 30 µM (not active)
COC(=O)C1=C(C(=O)OC)C(C(=O)OC)C(C(=O)OC)C(C(=O)OC)(C(=O)OC)C(C(=O)OC)=C1C(=O)OC (configuration not stated),IC50,Beta-galactosidase,> 66.6 µM (inactive)
C[C@H](CO)N1C[C@H](C)[C@@H](CN(C)C(=O)Nc2ccc3c(c2)OCO3)Oc2c(cccc2N(C)C)C1=O,AC50,[13],> 52 µM (inactive)
COC(=O)C1=C(C)N(Cc2ccccc2)C(=S)NC1c1cccc(Br)c1 (configuration not stated),AC50,Cryptococcus neoformans,36.5 µM (active)
same,AC50,HEK293,33.6 µM (active)
same,AC50,[14],33.6 µM (active)
O=C(Nc1ccccc1)N1CCCCN2[C@H](CO)[C@@H](c3ccc(C#CC4CC4)cc3)[C@@H]2C1,AC50,HeLa,> 52 µM (inactive)
same,AC50,HEK293,14.4 µM (active)
same,AC50,[14],14.4 µM (active)
O=C(N/N=C/c1ccc([N+](=O)[O-])cc1)c1cc(-c2ccc3c(c2)OCO3)[nH]n1,IC50,[15],7.27 µM (active)
CC1CN(S(=O)(=O)c2ccc(NC(=O)c3cc(-c4ccccc4O)n[nH]3)cc2)CC(C)O1 (configuration not stated),IC50,[16],> 69.5 µM (inactive)
same,IC50,[17],> 69.5 µM (inactive)
O=C(O)C(O)c1ccco1 (configuration not stated),IC50,Estrogen receptor,> 50 µM (not active)
same,IC50,Estrogen receptor beta,3.23 µM (not active)
same,IC50,[18],3.73 µM (active)

# Reference: ChEMBL document CHEMBL1201862, “PubChem BioAssay data set” (2004)
